Test results taken from BigSolDB 2.1.

O=P(Oc1ccccc1)(Oc1ccccc1)N1CCN(P(=O)(Oc2ccccc2)Oc2ccccc2)CC1
solubility (mole fraction)
Conditions | in THF | in acetone | in benzene | in chloroform | in dichloromethane | in ethanol | in ethyl acetate | in methanol | in toluene
288.15 K | – | – | – | – | 0.00585 | – | – | – | –
293.15 K | 0.00109 | 0.000424 | 0.00268 | 0.0132 | 0.00725 | 0.000495 | 0.000826 | 3.28e-05 | 0.000506
298.15 K | 0.00143 | 0.000489 | 0.00319 | 0.0146 | 0.00878 | 0.000613 | 0.00103 | 5.77e-05 | 0.000616
303.15 K | 0.00183 | 0.000559 | 0.00385 | 0.0162 | 0.0106 | 0.000746 | 0.00122 | 9.84e-05 | 0.000782
308.15 K | 0.00236 | 0.000631 | 0.00458 | 0.0183 | 0.013 | 0.000946 | 0.00158 | 0.000156 | 0.000986
313.15 K | 0.00301 | 0.000717 | 0.00549 | 0.0202 | – | 0.00113 | 0.00194 | 0.000251 | 0.00124
318.15 K | 0.00375 | 0.000795 | 0.00632 | 0.0223 | – | 0.00134 | 0.00242 | 0.000415 | 0.00148
323.15 K | 0.00493 | 0.000901 | 0.00724 | 0.0245 | – | 0.00158 | 0.00301 | 0.000656 | 0.00178
328.15 K | 0.00605 | – | 0.00834 | – | – | 0.00186 | 0.0036 | – | 0.00213
333.15 K | 0.00766 | – | 0.00972 | – | – | 0.00221 | 0.00437 | – | 0.00251
338.15 K | – | – | 0.0112 | – | – | 0.00269 | 0.00521 | – | 0.00313
343.15 K | – | – | 0.0129 | – | – | 0.0032 | 0.00614 | – | 0.00371
